The values that follow come from the SangsterLogP compilation.

This data set is described as follows: method code SF-AS, from DOI: 10.1002/chin.197535153.
For `Nc1cccc(OC(=O)c2ccc(N)cc2O)c1`, the logP was determined as 2.08.
For the molecule `Nc1ccc(C(=O)Oc2ccccc2)c(O)c1`, the logP was 3.15.
Take `Nc1ccc(OC(=O)c2ccc(N)cc2O)cc1`: the logP is 2.04.
Molecule `Nc1ccc(C(=O)Oc2ccccc2Br)c(O)c1` gave a logP of 3.74.
With `Cc1ccccc1OC(=O)c1ccc(N)cc1O`, the logP worked out at 3.14.
To `COc1cccc(OC(=O)c2ccc(N)cc2O)c1` belongs 3.25; to `Cc1ccc(OC(=O)c2ccc(N)cc2O)cc1`, 3.38.
For the molecule `Cc1cccc(OC(=O)c2ccc(N)cc2O)c1`, the logP was 3.64.
Molecule `Nc1ccc(C(=O)Oc2ccc(Cl)cc2)c(O)c1` had a logP of 3.6.
As to `Nc1ccc(C(=O)Oc2ccc(Br)cc2)c(O)c1`, the logP stood at 3.46.
On to `CC(C)c1ccc(OC(=O)c2ccc(N)cc2O)cc1`, for which the logP worked out at 4.12.
In the case of `COc1ccc(OC(=O)c2ccc(N)cc2O)cc1` it was 3.07; in that of `Nc1ccc(C(=O)Oc2cccc(C(F)(F)F)c2)c(O)c1`, 3.61; in that of `CC(C)c1ccccc1OC(=O)c1ccc(N)cc1O`, 4.28.
`Nc1ccc(C(=O)O)c(O)c1` came in with a logP of 0.87.
Turning to `Nc1ccc(C(=O)Oc2ccc(F)cc2)c(O)c1`, the lipophilicity (logP) is 3.27.
For the molecule `Nc1ccc(C(=O)Oc2ccc(Cl)cc2Cl)c(O)c1`, the logP came to 4.27.
In turn, `COc1ccccc1OC(=O)c1ccc(N)cc1O` came in with a logP of 2.88.
For the molecule `Cc1cccc(C)c1OC(=O)c1ccc(N)cc1O`, the logP was found to be 3.88.
In the case of `Nc1ccc(C(=O)Oc2cccc(Br)c2)c(O)c1` it was 3.84; in that of `Nc1ccc(C(=O)Oc2ccccc2F)c(O)c1`, 3.29; in that of `Nc1ccc(C(=O)Oc2ccccc2Cl)c(O)c1`, 3.72.
Turning to `Nc1ccc(C(=O)Oc2cccc(F)c2)c(O)c1`, the lipophilicity (logP) worked out at 3.42.
Consider `CC(C)(C)c1ccccc1OC(=O)c1ccc(N)cc1O`, for which the lipophilicity (logP) turned out to be 4.21.
Molecule `Nc1ccc(C(=O)Oc2cccc(Cl)c2)c(O)c1` registered a logP of 3.9.

What is called logP is the decadic logarithm of the partition coefficient of the neutral form, usually between octanol and water.
